Patent US8765420B2, “Method for preparing pterocarpan” (priority 2010, dated 2014)

Molecular target: T1, biphenyl dioxygenase of P. pseudoalcaligenes KF707 (SEQ ID NO:3) (Metapseudomonas furukawaii, UniProt Q52028)
T1 construct: expressed in transfected cells; host or cells: Escherichia coli JM109 (pJHF108)
Assay: Biotransformation kinetics by whole cells of E. coli expressing biphenyl dioxygenase
Format: biochemical, Pseudomonas pseudoalcaligenes strain KF707
Conditions: for Corresponding epoxides produced after 5 h reaction: initial concentration of substrate 250 μM, whole cells of E. coli expressing BDO, 37° C., means of triplicate ± standard errors
Protocol: E. coli JM109 (pJHF108) was seed cultivated in 50 mL of LB medium containing ampicillin […] at 37° C. for 12 hours. The cultivated seed was inoculated to a 5-L fermentor (BioFlo 3000, Korea fermentor Co., Korea) containing 4.5 L of LB medium and […] of ampicillin, and mixed at 37° C. at 200 rpm for 8 hours. The culture broth was centrifuged at 8,000 g for 10 minutes using VS-21SMT centrifuge (Vision Scientific Co., Bucheon, Korea). Cells were washed three times with 100 mM minimal salt buffer and resuspended in the same buffer, adjusting to the optical density at 600 nm using a UV/visible spectrophotometer (Shimadzu, UV-1601PC, Kyoto, Japan).
Analytical HPLC was carried out using a Varian Prostar HPLC apparatus (Walnut Creek, Calif.) equipped with a photodiode array […] detector. For the analysis of isoflavan-4-ol stereoisomers and their metabolites, a Waters Spherisorb ODS-2 column ([…], 4.6 mm×25 cm, Milford, Mass.) was used. The mobile phase was operated as a linear gradient that made up of water-acetonitrile containing 0.1% formic acid (10% acetonitrile at 0 min, 40% acetonitrile at 15 min, 90% acetonitrile at 25 min, and 90% acetonitrile at 40 min). The flow rate was 1 mL/min and UV detection was performed at 270 nm. For the analysis of enantiomers of cis- and trans-isoflavan-4-ol, a Sumi Chiral OA-7000 column (5 mm, 4.6 mm×25 cm, Sumika Chemical Analysis Service, Ltd., Osaka, Japan) and mobile phase composed of 60:40 (v/v) of 20 mM phosphate buffer (pH 3.0) and acetonitrile were used. The flow rate was 1 mL/min and UV detection was performed at 270 nm.
Biotransformation kinetics by whole cells of E. coli expressing biphenyl dioxygenase was performed as follows. The bacterial culture was prepared as described above, resuspended in 50 mL of phosphate buffer containing 1 mM glucose in a 250 mL flask, and adjusted to a final culture concentration of OD 600 nm=0.6. Then, the bacterial culture was incubated with 250 μM each of four purified isoflavan-4-ol stereoisomers ((3S,4S)- and (3R,4R)-cis-isoflavan-4-ols and (3S,4R)- and (3R,4S)-trans-isoflavan-4-ols) on a rotary shaker (200 rpm) at 37° C. The bacterial cultures (2 mL) were extracted with ethyl acetate, and the solvent was evaporated to dryness as described above. Quantification of metabolites and parent compound by using HPLC with time was monitored in triplicate experiments. Due to the instability of metabolites which were produced from parent compound, the quantity was calculated from the peak area as compared to the standard curve of the parent compound.

T1 sequence (Q52028 whole entry M237T/S238T/M247I/H255Q/V258I/G268A/F277Y/M283S/M285L/D303E/T340I): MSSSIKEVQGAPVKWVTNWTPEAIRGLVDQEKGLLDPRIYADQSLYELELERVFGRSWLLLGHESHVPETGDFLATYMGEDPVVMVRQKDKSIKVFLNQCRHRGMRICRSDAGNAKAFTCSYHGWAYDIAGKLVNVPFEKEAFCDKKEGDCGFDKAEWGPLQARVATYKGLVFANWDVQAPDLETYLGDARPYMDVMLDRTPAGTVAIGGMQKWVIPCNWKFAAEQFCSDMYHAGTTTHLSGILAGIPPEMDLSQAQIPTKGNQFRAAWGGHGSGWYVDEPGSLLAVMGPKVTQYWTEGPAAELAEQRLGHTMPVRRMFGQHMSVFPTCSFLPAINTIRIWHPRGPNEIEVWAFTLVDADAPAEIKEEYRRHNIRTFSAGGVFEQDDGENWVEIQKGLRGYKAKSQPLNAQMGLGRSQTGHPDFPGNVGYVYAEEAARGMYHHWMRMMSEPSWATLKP

O[C@@H]1c2ccccc2OC[C@@H]1c1ccccc1 (stereo in doubt) [(3S,4S)-cis-isoflavan-4-ol]
epoxide production relative to that from (3R,4R)-cis-isoflavan-4-ol (after 5 h of reaction): about 4.8 fold
Corresponding epoxides produced after 5 h reaction: 194.8 ± 5.5 µM

O[C@H]1c2ccccc2OC[C@@H]1c1ccccc1 (stereo in doubt) [(3S,4R)-trans-isoflavan-4-ol]
Corresponding epoxides produced after 5 h reaction: 141.1 µM
Corresponding epoxides produced after 5 h reaction (listed as Trans-isoflavan-4-ol (3S,4R)): 141.1 ± 6.2 µM

O[C@@H]1c2ccccc2OC[C@H]1c1ccccc1 (stereo in doubt) [(3R,4S)-trans-isoflavan-4-ol]
Corresponding epoxides produced after 5 h reaction: 163.3 µM
Corresponding epoxides produced after 5 h reaction (listed as Trans-isoflavan-4-ol (3R,4S)): 163.3 ± 6.8 µM

O[C@H]1c2ccccc2OC[C@H]1c1ccccc1 (stereo in doubt) [(3R,4R)-cis-isoflavan-4-ol]
Corresponding epoxides produced after 5 h reaction: 40 ± 4.0 µM
